Measured values taken from patent US12551576B2, “Chemiluminescent probes” (The General Hospital Corporation, priority 2020, dated 2026).
Each block holds one compound with its values, some of them ahead of it.

Assays:
[1] = Fluorescence and chemiluminescence spectral studies; type: physicochemical
Method: Materials and Methods: reagents used for the synthesis were purchased from Sigma-Aldrich and used without further purification. Column chromatography was performed on a glass column slurry-packed with silica gel (60 Å, […]; SiliCycle Inc.). Recombinant Aβ peptide (1-40/42) were purchased from rPeptide (A-1163-1). Aβ aggregates for in vitro studies were generated by slow stirring of Aβ40 in PBS buffer for 3 days at room temperature. ^1H and ^13C NMR spectra were recorded at 500 MHz and 125 MHz on Bruker spectrometers in CDCl3, CD3OD or DMSO-d6 solutions at room temperature with tetramethylsilane (TMS, δ=0) as an internal standard. Liquid chromatography-mass spectrometry (LC-MS) was performed using an Agilent 1200 Series apparatus with an LC/MSD trap and Daly conversion dynode detector with UV detection at 254 nm. Fluorescence measurements were carried out using an F-7100 fluorescence spectrophotometer (Hitachi). Transgenic female 5×FAD mice and age-matched wild-type female mice were purchased from Jackson Laboratory. All animal experiments were approved by the Institutional Animal Use and Care Committee at Massachusetts General Hospital. The IVIS Spectrum animal imaging system (PerkinElmer) was used for in vitro and in vivo imaging.
Fluorescence spectral studies: Normally, all chemiluminescent molecules are fluorescent. The excitation and emission spectra of ADLumin-X were recorded and the emission peak of ADLumin-1 was around 590 nm (FIG. 1D) in DMSO, which is considerably longer than most of the commercially available chemiluminescence probes. The emission of ADLumin-2 is longer than that of ADLumin-1, due to its additional double-bond. (the emission peak of ADLumin-2 was 20 nm longer). […] Based on this fact, ADLumin-1 was used throughout this example, due to its high QY.
Chemiluminescence spectral studies: ADLumin-1 is stable in PBS buffer and organic solvents, including acetonitrile, dichloromethane and methanol. […] Without being bound by any theory, it is believed that the luminescence was due to the auto-oxidation of ADLumin-1. Although the mechanism of chemiluminescence of IPO derivatives has been studied, the mechanism of auto-oxidation has been rarely explored. In the course of the experiments, ADLumin-1 emitted very strong luminescence in pure DMSO (FIG. 2b). Unexpectedly, if the ADLumin-1 DMSO solution was stirred, even stronger luminescence can be detected (3.4-fold in FIG. 2b). Without being bound by any theory, it is believed that the luminescence was related to oxygen levels in DMSO. […] However, the increasing-fold decreased with cycles (FIG. 2c). […] Since no ROS were added into the DMSO solution, it is reasonable to infer that the auto-oxidation of ADLumin-1 was oxygen-level dependent. It is worthy to note that green fluorescent protein and luciferase/luciferin also dependent on oxygen for their proper imaging functions.

PA-K2 = assay: ThT fluorescence test with PA-K and PA-K2; type: binding
misfoldons in serum = assay: ThT test of misfoldons in serum; set-up: species or system human; settings: some misfoldons
From the text: However, the detected difference was much smaller than that by ADLumin-1.

Aβ40 aggregates = Aβ40 aggregates (Homo sapiens, UniProt P05067); assay: In vitro chemiluminescence study with Aβ aggregates in PBS; type: binding; settings: pH 7.4
Sequence of Aβ40 aggregates (P05067 672-711 limits assumed): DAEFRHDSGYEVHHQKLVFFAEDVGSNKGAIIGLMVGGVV

quantum yield ratio ΦADLumin-1/ΦADLumin-2 [1]: 1.5 | emission peak longer than that of ADLumin-1 ([1]; fluorescence, DMSO): 20 nm
Compound: Cc1nc2c[nH]c(/C=C/C=C/C=C/c3ccc(N(C)C)cc3)cn-2c1=O [ADLumin-2, 6-((1E,3E,5E)-6-(4-(dimethylamino)phenyl)hexa-1,3,5-trien-1-yl)-2-methylimidazo[1,2-a]pyrazin-3(7H)-one]

Compound: Cc1ccc2c(c1)sc(-c1ccc(N(C)C)cc1)[n+]2C.[Cl-] [ThT, Thioflavin T]
difference lower than the difference provided by ADLumin-1 (PA-K2): 11.8 fold | fluorescence difference between PA-K and PA-K2 (PA-K2; ThT 0.01 mg/ml): about 4.01 fold | peptide concentration at which the difference PA-K vs PA-K2 is detected (PA-K2; fluorescence): 0.1 mg/mL | ThT signal for misfoldons in serum (misfoldons in serum): slightly higher signal

Compound: MCLA [reference compound]
chemiluminescence signal with Aβs (Aβ40 aggregates): significantly reduced signal

Compound: firefly luciferin [reference compound]
emission peak (FWHM comparison) [1]: 570 nm | full width at half-maximum (FWHM) [1]: 83 nm
